Legend:
[1] = pKa of amine lipid by TNS fluorescence; type: physicochemical; conditions: probe TNS (6-(p-toluidino)-2-naphthalenesulfonic acid sodium salt), unformulated amine lipid in ethanol, sodium phosphate buffers -9.0
In short: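 Unformulated amine lipid, about 100 μM final, in 0.1 M sodium phosphate buffers spanning pH 4.5–9.0 with TNS. Fluorescence read at ex 321/em 448 nm; normalized data fitted sigmoidally to give pKa.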

mouse TTR gene = experiment: In vivo editing in mouse liver, LNP with Cas9 mRNA and sgRNA G282, NGS; conditions: Table 3; guide G282; CD-1 female mice, 0.1 mpk i.v., liver at 6 or 7 days; Exp. 1, 8, 9, 10
Procedure: (§1) LNPs were prepared using various amine lipids in a 4-component lipid system consisting of an ionizable lipid (e.g. an amine lipid), DSPC, cholesterol and PEG-2k-DMG. In assays for percent liver editing in mice, Cas9 mRNA and chemically modified sgRNA targeting a mouse sequence were formulated in LNPs, at either a 1:1 w/w ratio or a 1:2 w/w ratio.
(§2) The lipid components were dissolved in 100% ethanol with the lipid component molar ratios described below. The chemically modified sgRNA and Cas9 mRNA were combined and dissolved in 25 mM citrate, 100 mM NaCl, pH 5.0, resulting in a concentration of total RNA cargo of approximately 0.45 mg/mL. The LNPs were formulated with an N/P ratio of about 6, with the ratio of chemically modified sgRNA: Cas9 mRNA at either a 1:1 or 1:2 w/w ratio as described below.
(§3) CD-1 female mice, ranging from 6-10 weeks of age were used in each study. Animals were weighed and grouped according to body weight for preparing dosing solutions based on group average weight. LNPs were dosed via the lateral tail vein in a volume of 0.2 mL per animal (approximately 10 mL per kilogram body weight). The animals were periodically observed for adverse effects for at least 24 hours post dose.
(§4) For studies measuring in vivo editing in liver, CD-1 female mice were dosed at 0.1 mpk unless otherwise noted. Animals were euthanized at 6 or 7 days by exsanguinationvia cardiac puncture under isoflourane anesthesia. Liver tissue was collected from each animal for DNA extraction and analysis. Blood was collected into serum separator tubes or into tubes containing buffered sodium citrate for plasma as described herein. Cohorts of mice were measured for editing by Next-Generation Sequencing (NGS).
(§5) In brief, to quantitatively determine the efficiency of editing at the target location in the genome, genomic DNA was isolated and deep sequencing was utilized to identify the presence of insertions and deletions introduced by gene editing.
(§6) PCR primers were designed around the target site (e.g., B2M), and the genomic area of interest was amplified. Additional PCR was performed according to the manufacturer's protocols (Illumina) to add the necessary chemistry for sequencing. The amplicons were sequenced on an Illumina MiSeq instrument. The reads were aligned to the relevant reference genome (e.g., GRCm38) after eliminating those having low quality scores. The resulting files containing the reads were mapped to the reference genome (BAM files), where reads that overlapped the target region of interest were selected and the number of wild type reads versus the number of reads which contain an insertion, substitution, or deletion was calculated.
(§7) The editing percentage (e.g., the “editing efficiency” or “percent editing”) is defined as the total number of sequence reads with insertions or deletions over the total number of sequence reads, including wild type.
(§8) We assessed in vivo editing efficiency for materials delivered with formulations including various amine lipid compounds. Editing was measured using either G282 (SEQ ID No: 1) which targets the mouse TTR gene or G650 (SEQ ID No. 2) which targets the mouse B2M gene. Lipids described above were assessed for efficacy through in vivo editing experiments. LNPs were formulated at a 1:1 w/w ratio of sgRNA to Cas9 mRNA, and at an N/P ratio of about 6. Molar concentrations of lipids in the lipid component of the LNPs are expressed as mol % amine lipid/DSPC/cholesterol/PEG-2k-DMG, e.g. 50/10/38.5/1.5. The final LNPs were characterized to determine the encapsulation efficiency, polydispersity index, and average particle size according to the analytical methods provided above. Analysis of average particle size, polydispersity (PDI), total RNA content and encapsulation efficiency of RNA are shown in Table 2.
To assess whether the editing was dose responsive, experiments were performed in vivo at various LNP dose levels. […]

mouse TTR = experiment: Serum TTR ELISA in mice after LNP delivery; type: in vivo; conditions: Table 3, guide G282, CD-1 female mice, 0.1 mpk i.v.; for Serum TTR: Exp. 1, 8, 9, 10; for Serum TTR % TSS: percentage of vehicle control (TSS)
In short: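 Female CD-1 mice received LNP at 0.1 mpk unless noted; serum was collected 6 or 7 days later. Total serum TTR was measured by mouse prealbumin ELISA at 10,000- and/or 2,500-fold dilution and is expressed as a percentage of vehicle control.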

mouse B2M gene = experiment: In vivo editing in mouse liver, LNP with Cas9 mRNA and sgRNA G650, NGS; conditions: Table 3; guide G650; CD-1 female mice, 0.1 mpk i.v., liver at 6 or 7 days; Exp. 2-7
Procedure: as §1, §2, §3, §4, §5, §6, §7, §8

Row | SMILES | pKa [1] | Editing Mean % Indel (mouse TTR gene) [%] | Serum TTR (mouse TTR) [µg/mL] | Serum TTR % TSS (mouse TTR) [% TSS] | Editing Mean % Indel (mouse B2M gene) [%]
1 | CCCCC/C=C\C/C=C\CCCCCCCC(=O)OCC(COC(=O)CCCCCCC/C=C\C/C=C\CCCCC)OC(=O)CCC(CCCCCCCCCCCC)OC(=O)OCCCN(C)CC (stereo not drawn) [Compound 3, 2-((4-(((3-(ethyl(methyl)amino)propoxy)carbonyl)oxy)hexadecanoyl)oxy)propane-1,3-diyl (9Z,9′Z,12Z,12′Z)-bis(octadeca-9,12-dienoate)] | 5.89 | 23.7 | 691 | 78 | –
2 | CCCCC/C=C\C/C=C\CCCCCCCC(=O)OCC(COC(=O)CCCCCCC/C=C\C/C=C\CCCCC)OC(=O)CCC(CCCCCCCCCCCC)OC(=O)NCCCN(C)C (stereo not drawn) [Compound 8, 2-((4-(((3-(dimethylamino)propyl)carbamoyl)oxy)hexadecanoyl)oxy)propane-1,3-diyl] | 7.54 | 0.1 | 745 | 84 | –
3 | CCCCCC/C=C\COC(=O)CCCCCCCC(=O)OCC(COC(=O)CCCCCCCC(=O)OC/C=C\CCCCCC)OC(=O)CCC(CCCCCCCCCCCC)OC(=O)NCC1CCCN1C (stereo not drawn) [Compound 24, O′1,O1-(2-((4-((((1-methylpyrrolidin-2-yl)methyl)carbamoyl)oxy)hexadecanoyl)oxy)propane-1,3-diyl)9,9′-di((Z)-non-2-en-1-yl) di(nonanedioate)] | 6.1 | – | – | – | 6.8
4 | CCCCC/C=C\C/C=C\CCCCCCCC(=O)OCC(COC(=O)CCCCCCC/C=C\C/C=C\CCCCC)OC(=O)CCCC(CCCCCCCCCCCC)OC(=O)OCCCN(C)C (stereo not drawn) [Compound 25, 2-((5-(((3-(dimethylamino)propoxy)carbonyl)oxy)heptadecanoyl)oxy)propane-1,3-diyl (9Z,9′Z,12Z,12′Z)-bis(octadeca-9,12-dienoate)] | 6.12 | – | – | – | 10.2
5 | CCCCC/C=C\C/C=C\CCCCCCCC(=O)OCC(COC(=O)CCCCCCC/C=C\C/C=C\CCCCC)OC(=O)CCCC(CCCCCCCCCCCC)OC(=O)OCCCN(C)CC (stereo not drawn) [Compound 26, 2-((5-(((3-(ethyl(methyl)amino)propoxy)carbonyl)oxy)heptadecanoyl)oxy) propane-1,3-diyl (9Z,9′Z,12Z,12′Z)-bis(octadeca-9,12-dienoate)] | 5.82 | – | – | – | 5.2
6 | CCCCC/C=C\C/C=C\CCCCCCCC(=O)OCC(COC(=O)CCCCCCC/C=C\C/C=C\CCCCC)OC(=O)CCCC(CCCCCCCCCCCC)OC(=O)OCCCN1CCCC1 (stereo not drawn) [Compound 27, 2-((5-(((3-(pyrrolidin-1-yl)propoxy)carbonyl)oxy)heptadecanoyl)oxy)propane-1,3-diyl (9Z,9′Z,12Z,12′Z)-bis(octadeca-9,12-dienoate)] | 5.97 | – | – | – | 13.0
7 | CCCCC/C=C\C/C=C\CCCCCCCC(=O)OCC(COC(=O)CCCCCCC/C=C\C/C=C\CCCCC)OC(=O)CCCC(CCCCCCCCCCCC)OC(=O)NCCN(C)CC (stereo not drawn) [Compound 28, 2-((5-(((2-(ethyl(methyl)amino)ethyl)carbamoyl)oxy)heptadecanoyl)oxy) propane-1,3-diyl (9Z,9′Z,12Z,12′Z)-bis(octadeca-9,12-dienoate)] | 6.06 | – | – | – | 17.8
8 | CCCCC/C=C\C/C=C\CCCCCCCC(=O)OCC(COC(=O)CCCCCCC/C=C\C/C=C\CCCCC)OC(=O)CCCC(CCCCCCCCCCCC)OC(=O)NCC1CCCN1C (stereo not drawn) [Compound 29, 2-((5-((((1-methylpyrrolidin-2-yl)methyl)carbamoyl)oxy)heptadecanoyl)oxy) propane-1,3-diyl (9Z,9′Z,12Z,12′Z)-bis(octadeca-9,12-dienoate)] | 6.05 | – | – | – | 3.6
9 | CCCCC/C=C\C/C=C\CCCCCCCC(=O)OCC(COC(=O)CCC(CCCCCCCCCCCC)OC(=O)OCCCN(C)C)OC(=O)CCCCCCC/C=C\C/C=C\CCCCC (stereo not drawn) [Compound 30, 9-dodecyl-2-methyl-7,12-dioxo-6,8,13-trioxa-2-azahexadecane-15,16-diyl (9Z,9′Z,12Z,12′Z)-bis(octadeca-9,12-dienoate)] | 6.53 | 10.4 | 841 | 95 | –
10 | CCCCC/C=C\C/C=C\CCCCCCCC(=O)OCC(COC(=O)CCCCCCC/C=C\C/C=C\CCCCC)OC(=O)CCC(CCCCCCCC)OC(=O)OCCCN(C)C (stereo not drawn) [Compound 31, 2-((4-(((3-(dimethylamino)propoxy)carbonyl)oxy)dodecanoyl)oxy)propane-1,3-diyl (9Z,9′Z,12Z,12′Z)-bis(octadeca-9,12-dienoate)] | 6.28 | – | – | – | 15.6

Further lines, with some results ahead:

Row | pKa [1] | SMILES | Editing Mean % Indel (mouse TTR gene) [%] | Serum TTR (mouse TTR) [µg/mL] | Serum TTR % TSS (mouse TTR) [% TSS] | Editing Mean % Indel (mouse B2M gene) [%]
11 | 5.64 | CCCCC/C=C\C/C=C\CCCCCCCC(=O)OCC(COC(=O)CCCCCCC/C=C\C/C=C\CCCCC)OC(=O)CCC(CCCCCCCC)OC(=O)OCCCN(CC)CC (stereo not drawn) [Compound 32, 2-((4-(((3-(diethylamino)propoxy)carbonyl)oxy)dodecanoyl)oxy)propane-1,3-diyl (9Z,9′Z,12Z,12′Z)-bis(octadeca-9,12-dienoate)] | – | – | – | 11.6
12 | 5.95 | CCCCC/C=C\C/C=C\CCCCCCCC(=O)OCC(COC(=O)CCCCCCC/C=C\C/C=C\CCCCC)OC(=O)CCC(CCCCCCCC)OC(=O)OCCCN(C)CC (stereo not drawn) [Compound 33, 2-((4-(((3-(ethyl(methyl)amino)propoxy)carbonyl)oxy)dodecanoyl)oxy)propane-1,3-diyl (9Z,9′Z, 12Z, 12′Z)-bis(octadeca-9,12-dienoate)] | – | – | – | 20.0
13 | 5.62 | CCCCC/C=C\C/C=C\CCCCCCCC(=O)OCC(COC(=O)CCCCCCC/C=C\C/C=C\CCCCC)OC(=O)CCC(CCCCCCCC)OC(=O)N(C)CCN(C)C (stereo not drawn) [Compound 38, 2-((4-(((2-(dimethylamino)ethyl)(methyl)carbamoyl)oxy)dodecanoyl)oxy) propane-1,3-diyl (9Z,9′Z,12Z,12′Z)-bis(octadeca-9,12-dienoate)] | 26.7 | 301 | 39 | –
14 | 6.51 | CCCCC/C=C\C/C=C\CCCCCCCC(=O)OCC(COC(=O)CCCCCCC/C=C\C/C=C\CCCCC)OC(=O)CCC(OC(=O)NCCN(C)CC)C1CCCCC1 (stereo not drawn) [Compound 41, 2-((4-cyclohexyl-4-(((2-(ethyl(methyl)amino)ethyl)carbamoyl)oxy)butanoyl)oxy) propane-1,3-diyl (9Z,9′Z,12Z,12′Z)-bis(octadeca-9,12-dienoate)] | 28.8 | 393 | 48 | –
15 | 6.52 | CCCCC/C=C\C/C=C\CCCCCCCC(=O)OCC(COC(=O)CCCCCCC/C=C\C/C=C\CCCCC)OC(=O)CCC(CCCC)OC(=O)NCCN(C)CC (stereo not drawn) [Compound 42, 2-((4-(((2-(ethyl(methyl)amino)ethyl)carbamoyl)oxy)octanoyl)oxy)propane-1,3-diyl (9Z,9′Z,12Z,12′Z)-bis(octadeca-9,12-dienoate)] | 21.6 | 473 | 58 | –

Reference: patent publication US12077483B2, “Modified amine lipids” (Intellia Therapeutics, Inc., priority 2018, dated 2024)
